# Measurements taken from patent publication US6653529B2, “Use of the maize X112 mutant ahas 2 gene and imidazolinone herbicides for selection of transgenic monocots, maize, rice and wheat plants resistant to the imidazolinone herbicides” (BASF Aktiengesellschaft, priority 2000, dated 2003).
# Legend:
# Assay type in all cases: in vivo
# [1] = test system: transgenic rice Line 29 (maize XI12 ahas2 gene); test: Greenhouse spray test of rice with PURSUIT imazethapyr (pre- and post-emergence)
# [2] = test system: untransformed Nortai (Nt) rice plants; test: as above; settings: for No. panicles/plant Mean / No. tillers/plant Mean / Plant height Mean / Yield % 0× / Yield Mean: Nt
# [3] = test system: T2 seeds of transgenic rice (T0 plants No. 26 and 29); test: Seed germination test on imazethapyr; settings: 5 μM imazethapyr, 1 month treatment
# Description: (§1) Three tests were performed to evaluate herbicide resistance of T2 progeny of transgenic rice. T2 progeny were first evaluated by a seed germination test followed by the greenhouse spray test and PCR analysis. As a prelude to testing the transgenic plants, an experiment was conducted to germinate untransformed rice seeds at imazethapyr concentrations ranging from 0.1 to 10 μM. […] The greenhouse spray test and PCR analysis were used to further confirm the results of the seed germination test with consistent identification of lines as resistant homozygous, susceptible homozygous or segregating hemizygous.
# (§2) T2 seeds harvested from individual T1 plants were sterilized in 50% Clorox® bleach (2.3% sodium hyperchlorite) for 30 min followed by a thorough rinse with autoclaved water and pre-germinated in water for 2-3 days. Thirty to 35 pre-germinated seeds were transferred to the surface of folded paper towels placed perpendicular to the bottom of a Magenta box (Sigma, St. Louis, Mo.) to which 20 ml of H2O containing 5 μM imazethapyr (AC263,499, tech grade) was added. The seedlings were grown under 12 hr light at 26° C. for about a month. Seedlings that survived the imazethapyr treatment were scored as resistant and those that died as susceptible. 5.0 μM imazethapyr, equivalent to 5 times the threshold, was used for subsequent seed germination tests of the T2 generation. T2 seeds harvested from 16 T1 lines derived from T0 plant No. 26 and those from 15 T1 lines derived from T0 plant No. 29 were screened in the seed germination tests.
# [4] = test system: untransformed rice seeds; test: Seed germination test on imazethapyr
# Description: as §1, §2
# [5] = test system: T1 corn plants of 1B1 (self and B73×1B1); test: Spray test of T1 progeny of transgenic corn plant 1B1; settings: 4× (250 ai g/ha) at 3-leaf stage; 6 self and 8 B73×1B1 T1 plants
# Description: Transgenic corn plants were evaluated in the greenhouse for resistant levels to various imidazolinone herbicides and inheritance of the transgene. For corn, our protocol involved self- or cross-pollinating the transgenic plants for 2 to 3 generations and spraying T1 progeny plants to identify the resistant vs. susceptible plants. Detailed analysis for levels of herbicide resistance and the inheritance pattern. Identification of lines homozygous for the transgene is carried out in T2 generation with self-pollination and cross-pollination derived progeny plants. […] B73 and Mo17 lines were obtained USDA/ARS and Crop Sciences, UIUC, Urbana, Ill. 61801-4798. T1 plants were treated with 4×PURSUIT® imazethapyr (250 ai g/ha) at 3-leaf stage and rated as either resistant or susceptible to the herbicide. A total of 6 self and 8 B73×1B1 T1 plants were sprayed and all survived the herbicide treatments.
# [6] = test system: transgenic wheat plants (0407-1 and progeny); test: Greenhouse spray test of wheat with RAPTOR imazamox
# Description: Sow seed to 3×5-cell flats at about 10 seed per cell. Grow the plants for about two weeks. On the day of spraying, water plants well and let excess water drip out. Spray plants on a belt-sprayer with the imidazolinone herbicides at desired rates. […] Resume regular water schedule three days after spraying. Closely observe the plants for the next two to four weeks. Symptoms of herbicide injury will be visible two weeks after spraying and susceptible plants will die four to six weeks later. We usually measure plant height and score the plant morphology with a 0 to 10 rating with 0 for dead plants and 10 for healthy plants with no or minimum injury.
# Wheat transformation efficiency, calculated as percent of immature embryos produced at least one imidazolinone-resistant transgenic plant ranged from 0.4 to 3.1% (Table 7). A fertile regenerant 0407-1 generated from early transformation experiment with Agrobacterium (LBA4404) containing pAC1558 was evaluated for resistance to RAPTOR® imazamox post emergence. Untransformed Ciccio and Closseo plants were very sensitive to RAPTOR® imazamox and dead at very low rate.
# We also analyzed T2 progeny plants from one of the best lines of 0407-1-10. T2 seeds were planted at 10 seeds per pot and two pots per line were sprayed at 0, 10, 20, 30, 40 and 50 g/ha RAPTOR® imazamox. Most plants did show an increase in resistance over non-transformed control (FIG. 6B).
# [7] = post-emergence, Rate 63 (g ai/ha)
# [8] = post-emergence, Rate 125 (g ai/ha)
# [9] = post-emergence, Rate 250 (g ai/ha)
smiles,measurement,setting,value
"CCc1cnc(C2=NC(C)(C(C)C)C(=O)N2)c(C(=O)O)c1 (stereo not shown) [PURSUIT ®, imazethapyr]",No. panicles/plant Mean,[1]; [7],27.7
same,No. tillers/plant Mean,[1]; [7],34.5
same,Plant height Mean,[1]; [7],112.5 cm
same,Yield % 0×,[1]; [7],93 % 0×
same,Yield Mean,[1]; [7],199.0 g/5 plants
same,No. panicles/plant Mean,[1]; [8],24.5
same,No. tillers/plant Mean,[1]; [8],28.3
same,Plant height Mean,[1]; [8],114.1 cm
same,Yield % 0×,[1]; [8],113 % 0×
same,Yield Mean,[1]; [8],240.7 g/5 plants
same,No. panicles/plant Mean,[1]; [9],23.0
same,No. tillers/plant Mean,[1]; [9],24.1
same,Plant height Mean,[1]; [9],110.2 cm
same,Yield % 0×,[1]; [9],93 % 0×
same,Yield Mean,[1]; [9],197.3 g/5 plants
same,No. panicles/plant Mean,"[1]; pre-emergence, 63 g/ha",15.6
same,No. tillers/plant Mean,"[1]; pre-emergence, 63 g/ha",16.2
same,Plant height Mean,"[1]; pre-emergence, 63 g/ha",92.7 cm
same,Yield % 0×,"[1]; pre-emergence, 63 g/ha",93 % 0×
same,Yield Mean,"[1]; pre-emergence, 63 g/ha",156.3 g/5 plants
same,No. panicles/plant Mean,"[1]; pre-emergence, 125 g/ha",16.3
same,No. tillers/plant Mean,"[1]; pre-emergence, 125 g/ha",14.3
same,Plant height Mean,"[1]; pre-emergence, 125 g/ha",95.1 cm
same,Yield % 0×,"[1]; pre-emergence, 125 g/ha",99 % 0×
same,Yield Mean,"[1]; pre-emergence, 125 g/ha",166.7 g/5 plants
same,No. panicles/plant Mean,"[1]; pre-emergence, 250 g/ha",16.2
same,No. tillers/plant Mean,"[1]; pre-emergence, 250 g/ha",16.3
same,Plant height Mean,"[1]; pre-emergence, 250 g/ha",93.1 cm
same,Yield % 0×,"[1]; pre-emergence, 250 g/ha",92 % 0×
same,Yield Mean,"[1]; pre-emergence, 250 g/ha",155.3 g/5 plants
same,reduction in plant height,"[2]; Nortai, pre-emergence, 63 g/ha",about 20%
same,reduction in yield,"[2]; Nortai, pre-emergence, 63 g/ha",~40%
same,No. panicles/plant Mean,[2]; [7],15.7
same,No. tillers/plant Mean,[2]; [7],20.0
same,Plant height Mean,[2]; [7],117.3 cm
same,Yield % 0×,[2]; [7],99 % 0×
same,Yield Mean,[2]; [7],227.0 g/5 plants
same,No. panicles/plant Mean,[2]; [8],13.9
same,No. tillers/plant Mean,[2]; [8],13.5
same,Plant height Mean,[2]; [8],94.5 cm
same,Yield % 0×,[2]; [8],52 % 0×
same,Yield Mean,[2]; [8],120.0 g/5 plants
same,No. panicles/plant Mean,[2]; [9],0
same,No. tillers/plant Mean,[2]; [9],0
same,Plant height Mean,[2]; [9],0 cm
same,Yield % 0×,[2]; [9],0 % 0×
same,Yield Mean,[2]; [9],0 g/5 plants
same,No. panicles/plant Mean,"[2]; pre-emergence, 63 g/ha",5.7
same,No. tillers/plant Mean,"[2]; pre-emergence, 63 g/ha",6.5
same,Plant height Mean,"[2]; pre-emergence, 63 g/ha",98.0 cm
same,Yield % 0×,"[2]; pre-emergence, 63 g/ha",56 % 0×
same,Yield Mean,"[2]; pre-emergence, 63 g/ha",110.7 g/5 plants
same,No. panicles/plant Mean,"[2]; pre-emergence, 125 g/ha",0
same,No. tillers/plant Mean,"[2]; pre-emergence, 125 g/ha",0
same,Plant height Mean,"[2]; pre-emergence, 125 g/ha",0 cm
same,Yield % 0×,"[2]; pre-emergence, 125 g/ha",0 % 0×
same,Yield Mean,"[2]; pre-emergence, 125 g/ha",0 g/5 plants
same,No. panicles/plant Mean,"[2]; pre-emergence, 250 g/ha",0
same,No. tillers/plant Mean,"[2]; pre-emergence, 250 g/ha",0
same,Plant height Mean,"[2]; pre-emergence, 250 g/ha",0 cm
same,Yield % 0×,"[2]; pre-emergence, 250 g/ha",0 % 0×
same,Yield Mean,"[2]; pre-emergence, 250 g/ha",0 g/5 plants
same,fate of control plants,"[2]; post-emergence, 250 g ai/ha",killed all plants
same,fate of control (Nortai) plants,"[2]; pre-emergence, 125 and 250 g/ha",completely killed
same,fate of resistant transgenic plants,[3],survived and continued to grow
same,fate of control seeds,"[4]; 5 μM imazethapyr, 1 month treatment",all control seeds died
same,concentration at which untransformed seeds were completely inhibited,[4]; germination at 0.1 to 10 μM,1 µM
same,survival of T1 plants,[5],all survived
"COCc1cnc(C2=NC(C)(C(C)C)C(=O)N2)c(C(=O)O)c1 (stereo not shown) [RAPTOR ®, imazamox]",reduction of plant height of resistant transgenic plants,"[6]; 20 g/ha, T2 progeny of 0407-1-10",about 25%
same,"T1 transgenic plants dead, out of 288",[6]; 50 g/ha,218
same,"T1 transgenic plants that survived, out of 288",[6]; 50 g/ha,70
same,stunting of resistant plants,"[6]; 50 g/ha, T1",33-70%
same,increase of tolerance in transgenic wheat plants,[6]; in vivo,5 ×
